Results taken from US20230227838A1, “ENHANCED CELL SURVIVAL AGAINST BIOTIC AND ABIOTIC STRESSES THROUGH SALICYLICK ACID-INDUCED NPR1 CONDENSATES” (priority 2020, published 2023).

What was measured:
CUL3 = assay: Pull-down of Myc-CUL3 with GST-fused NPR1 or variants co-expressed in E. coli; format: binding, Arabidopsis thaliana
Excerpt: Plasmid construction and E. coli-based ubiquitination: The coding sequences for all Arabidopsis genes were amplified from cDNA. Point mutations of AtNPR1 (AT1G64280) were generated using the QuikChange II site-directed mutagenesis kit (Agilent). Overlap PCR was used to generate the deletion/truncation mutations of AtCUL3A (AT1G26830) and AtNPR1. The WT and mutated coding sequences for all genes and gene fusions were sub-cloned into the pDONR207 gateway donor vector and confirmed by sequencing. The obtained entry vectors were recombined into either plant or E. coli destination vectors without or with an N- or C-terminal tag. For in planta expression, genes were recombined into the plant binary vectors pK7FWG2, pSITE-4NB and pLN462 to generate C-terminal eGFP, mCherry and HA fusions, respectively; into pK7WGF2, pEG201, pEG202, pEG203 and pEG204 to generate N-terminal eGFP, HA, FLAG, Myc and V5 fusions, respectively. […] For bimolecular fluorescence complementation (BiFC), entry vectors carrying the coding sequences of genes and their mutant variants were recombined into the pSITE-cEYFP-N1 binary vector for C-terminal fusion with the cYFP half (YC), or into the pSITE-nEYFP-C1 for N-terminal fusion with the nYFP half (YN). […]

ubiquitinated proteins = assay: Accumulation of ubiquitinated proteins (α-Ub immunoblot of total protein); format: in vivo, Arabidopsis thaliana; conditions: WT; absent in npr1-2; SA for 6 hr
Experimental: Protein analysis and IP. Recombinant protein analysis was performed using transient expression in N. benthamiana, or stable over-expression in transgenic Arabidopsis, or expression in E. coli. Total protein extraction from plants was performed by homogenizing leaf tissue in the plant extraction buffer [50 mM Tris-HCl (pH 7.5), 150 mM NaCl, 5 mM EDTA, 0.2% Triton X-100, 0.2% Nonidet P-40] supplemented with 1 mM PMSF, 100 μM MG132, and EDTA-free protease inhibitor cocktail (Roche). For ubiquitinated protein analysis in plants, 100 μM of DUB (deubiquitinase) inhibitor (LifeSensors) and 10 mM NEM were added. Next, the lysates were cleared by centrifugation at 14,000 rpm for 15 min followed by filtering through a 0.2 μm filter. […] Pull-downs or IP experiments were done on total protein extracts by incubating protein samples in the lysis buffer overnight with indicated affinity tag or antibody conjugated to agarose or magnetic beads: GFP-trap agarose beads (Chromotek) for GFP fusions; RFP-trap agarose beads (Chromotek) for mCherry fusions; anti-HA magnetic beads (ThermoFisher) for HA tag fusions; anti-DYKDDDDK coupled magnetic agarose (ThermoFisher) for FLAG tag fusions; and glutathione magnetic agarose (ThermoFisher) for GST fusions. Unless otherwise indicated, after pull-down/IP, beads were washed 3 times and proteins were eluted by boiling in the 2×SDS sample buffer. […]

| Compound | interaction with CUL3 when co-expressed in E. coli (CUL3) | accumulation of ubiquitinated proteins (ubiquitinated proteins) |
| --- | --- | --- |
| NPR1: wild-type Arabidopsis thaliana NPR1 protein, positive regulator of systemic acquired resistance | could be easily observed |  |
| O=C(O)c1ccccc1O [SA, salicylic acid] |  | concentration-dependent accumulation of ubiquitinated proteins |
